Measurements reported in paper PMC3277506, “Extra-Renal Elimination of Uric Acid via Intestinal Efflux Transporter BCRP/ABCG2” (PLoS ONE, 2012).
Values joined by “and” are separate entries in the source; they are usually repeats but may differ in a detail not shown here. Identical values can stand only once. Like-named read-outs stand apart in the source and are kept apart here.

Experiments:
[1] = Recovery of [14C]uric acid after intravenous administration in oxonate-treated rats; assay type: in vivo; settings: percentage of dose; for dose excreted: male, Wistar, rat, iv, 2 µCi/rat
Protocol: (§1) Male Wistar rats (280±30 g body weight) used in the present study were treated with potassium oxonate, a uric acid oxidase (uricase) inhibitor. Oxonate-treated rats were established as described previously, [48]. Briefly, rats were anesthetized with 50% urethane (2 mL/kg) and infused with 0.9% NaCl, 0.5% oxonate and 4% mannitol solution from the femoral vein at the flow rate of 3 mL/hr. As a bolus, 0.9% NaCl, 1.5% oxonate and 4% mannitol solution was administered from the jugular vein at 6 mL/kg. After equilibration for 80 min, blood, urine and bile samples were collected at 20-min intervals. When [^14C]uric acid (2 µCi/rat) was used, it was intravenously injected from the jugular vein after oxonate treatment for 80 min. In order to suppress the uricolysis of [^14C]uric acid by intestinal flora, animals received orally non-absorbed antibiotics, polymyxin B, kanamycin, and vancomycin at daily doses of 50, 50 and 20 mg/kg, respectively, for 7 days before this animal study. Urine and bile were collected at 20-min intervals, and blood samples were drawn at 1, 5, 10, 20, 40, 60, 80, 100 and 120 min. Urine and bile were collected from bladder and bile ducts, respectively, and blood from the jugular vein. In mice, urine was collected for 24 hours by using metabolic cages (Natsume, Tokyo, Japan).

[2] = Intestinal secretion of endogenous uric acid, in situ intestinal closed loop method, oxonate-treated rats; assay type: in vivo, rat; settings: 60 min, no inhibitor
Protocol: We evaluated intestinal secretion of endogenous uric acid according to the method described previously, with some modifications. Rats were anesthetized with 50% urethane and treated with oxonate by the same method as in the in vivo animal study described above. Intestinal closed loops were made at different segments: jejunum (10 cm), ileum (10 cm), and colon (3–5 cm). Phosphate-buffered solution (PB, 0.075 M NaH2PO4 - 0.075 M Na2HPO4, pH 6.5) or inhibitor-containing PB was injected into the intestinal loop. After 60 min, the remaining luminal content in each loop was washed out and collected for quantitation. Blood was obtained from the jugular vein at 1, 20, 40 and 60 min. Plasma was obtained by centrifugation and used for quantitation.
(§2) The following equation was used to calculate intestinal secretory clearance (µL/min/cm loop) and estimated total intestinal secretory clearance (CLintestine, estimated) (mL/min): [drawing 1] [drawing 2] [drawing 3] where A is the amount of uric acid secreted into the intestinal lumen of each loop for 60 min, L is the length of the intestine, and AUC is area under the plasma concentration-time curve.

[3] = Clearance of endogenous uric acid (urine, bile, estimated intestine) in oxonate-treated rats; assay type: in vivo, rat
Protocol: as §1, §2
Concentrations of uric acid in plasma, urine, bile, and intestinal content were analyzed by means of HPLC. Briefly, 80 µL 0.41% HClO4 was added to 40 µL of sample and mixed well. The sample was kept 4°C for 30 min. An aliquot was centrifuged at 15,000 rpm for 5 min at 4°C to separate denatured proteins. […] Uric acid was detected at 284 nm. […]

[4] = target: T1, rMdr1a (Rattus norvegicus, UniProt Q6PSM0); assay: Bidirectional transport of uric acid in LLC-PK1 cells expressing rMdr1a; assay type: in vitro ADME; settings: data not shown
T1 construct: expressed in transfected cells; host or cells: LLC-PK1 cells

[5] = humans; cited from earlier work
[6] = target: T2, rBcrp (Rattus norvegicus, UniProt Q80W57); assay: [14C]uric acid uptake by rBcrp-expressing membrane vesicles; assay type: biochemical; set-up: purchased GenoMembrane Inc. (Yokohama, Japan); host or cells: Sf9 cells
T2 sequence (Q80W57 1-657): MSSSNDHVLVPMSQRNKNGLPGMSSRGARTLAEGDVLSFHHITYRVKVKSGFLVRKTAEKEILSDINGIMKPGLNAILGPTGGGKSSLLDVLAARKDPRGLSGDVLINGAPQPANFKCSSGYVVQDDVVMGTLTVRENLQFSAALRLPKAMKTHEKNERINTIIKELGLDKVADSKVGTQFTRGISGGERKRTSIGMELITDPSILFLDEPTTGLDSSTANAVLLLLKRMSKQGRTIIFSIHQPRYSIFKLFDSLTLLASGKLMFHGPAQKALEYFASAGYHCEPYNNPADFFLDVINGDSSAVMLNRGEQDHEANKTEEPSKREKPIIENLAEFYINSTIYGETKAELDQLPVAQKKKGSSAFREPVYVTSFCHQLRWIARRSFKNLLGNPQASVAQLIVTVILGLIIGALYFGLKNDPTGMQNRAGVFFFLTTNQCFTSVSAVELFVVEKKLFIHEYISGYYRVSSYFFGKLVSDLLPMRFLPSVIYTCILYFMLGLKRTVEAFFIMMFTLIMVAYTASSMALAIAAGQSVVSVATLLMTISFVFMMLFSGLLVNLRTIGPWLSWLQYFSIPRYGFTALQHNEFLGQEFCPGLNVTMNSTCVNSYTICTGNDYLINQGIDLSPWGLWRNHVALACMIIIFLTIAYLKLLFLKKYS
Protocol: hBCRP/rBcrp, hMRP2/rMrp2, or hMDR1-expressing membrane vesicles prepared from Sf9 cells were purchased from GenoMembrane Inc. (Yokohama, Japan). Uptake experiments were conducted as described previously. Briefly, after a pre-incubation for 5 min at 37°C, membrane vesicles (50 µg protein/50 µL final reaction volume) were incubated for 5 min at 37°C in the presence of 4 mM ATP or AMP in assay buffer (1 M KCl, 1 M MgCl2, and 100 mM MOPS-Tris, pH 7.0) containing [^14C]uric acid (1 µCi/mL). The uptake reaction was terminated by adding 1 mL ice-cold washing buffer (1 M KCl, and 100 mM MOPS-Tris, pH 7.0) to the membrane solution, and the mixture was rapidly filtered through a nitrocellulose filter (0.45 µm pore size, Millipore, Bedford, MA). The filters were washed twice with 5 mL ice-cold washing buffer. The filters were dried and dissolved in Clearsol-I for quantitation of radioactivity.

T1 sequence (Q6PSM0 1-1272): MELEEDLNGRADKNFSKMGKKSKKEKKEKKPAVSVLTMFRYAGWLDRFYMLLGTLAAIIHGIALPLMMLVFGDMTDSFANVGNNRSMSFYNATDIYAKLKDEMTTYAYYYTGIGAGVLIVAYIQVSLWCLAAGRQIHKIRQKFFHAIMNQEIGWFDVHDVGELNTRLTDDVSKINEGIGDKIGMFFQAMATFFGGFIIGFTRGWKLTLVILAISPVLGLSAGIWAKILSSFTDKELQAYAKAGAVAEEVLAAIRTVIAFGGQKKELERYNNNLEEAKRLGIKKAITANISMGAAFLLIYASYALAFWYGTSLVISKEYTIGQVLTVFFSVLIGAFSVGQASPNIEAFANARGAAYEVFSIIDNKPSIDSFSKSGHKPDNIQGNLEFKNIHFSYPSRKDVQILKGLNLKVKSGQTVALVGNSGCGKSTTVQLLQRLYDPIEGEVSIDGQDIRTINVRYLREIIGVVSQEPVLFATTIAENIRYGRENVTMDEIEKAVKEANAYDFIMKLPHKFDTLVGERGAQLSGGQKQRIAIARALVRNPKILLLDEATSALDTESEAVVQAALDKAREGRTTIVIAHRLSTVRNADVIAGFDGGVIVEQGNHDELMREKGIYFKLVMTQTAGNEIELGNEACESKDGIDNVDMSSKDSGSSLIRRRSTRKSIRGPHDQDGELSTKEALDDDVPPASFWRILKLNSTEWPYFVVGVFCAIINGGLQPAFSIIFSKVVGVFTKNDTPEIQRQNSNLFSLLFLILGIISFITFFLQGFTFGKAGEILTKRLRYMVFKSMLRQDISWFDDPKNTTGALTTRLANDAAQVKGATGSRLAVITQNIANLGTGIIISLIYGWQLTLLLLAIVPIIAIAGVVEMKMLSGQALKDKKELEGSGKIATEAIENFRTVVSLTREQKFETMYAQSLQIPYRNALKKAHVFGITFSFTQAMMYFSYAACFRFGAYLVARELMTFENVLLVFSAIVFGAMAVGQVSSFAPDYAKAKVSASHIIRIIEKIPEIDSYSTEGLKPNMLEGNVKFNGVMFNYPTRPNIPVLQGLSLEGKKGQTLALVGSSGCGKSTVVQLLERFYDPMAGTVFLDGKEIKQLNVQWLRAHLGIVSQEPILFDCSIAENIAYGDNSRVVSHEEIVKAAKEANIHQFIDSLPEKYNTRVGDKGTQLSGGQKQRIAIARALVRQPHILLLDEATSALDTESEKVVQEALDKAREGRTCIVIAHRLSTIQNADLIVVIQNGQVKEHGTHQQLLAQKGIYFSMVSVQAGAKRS

- dose excreted ([1]; bile + intestine, up to 120 min, read-out: Recovery of [14C]uric acid, Bile+Intestine): 9.58%
- dose excreted ([1]; bile, up to 120 min, read-out: Recovery of [14C]uric acid, Bile): 0.68%
- dose excreted ([1]; urine, up to 120 min, read-out: Recovery of [14C]uric acid, Urine): 42.6%
- Recovery of [14C]uric acid, Cp×Vd (remaining in the body) ([1]; iv 2 µCi/rat, 2 hrs after administration, rough estimation from distribution volume and plasma concentration): 4.55%
- Recovery of [14C]uric acid, Intestine (luminal contents) ([1]; iv 2 µCi/rat, up to 120 min): 8.90%
- Recovery of [14C]uric acid, Urine ([1]; iv 2 µCi/rat, up to 120 min): 42.58%
- Intestinal secretion clearance of endogenous uric acid ([2]; colon closed loop): 0.76±0.17 µL/min/cm loop
- Intestinal secretion clearance of endogenous uric acid ([2]; ileum closed loop): 1.58±0.13 µL/min/cm loop
- Intestinal secretion clearance of endogenous uric acid ([2]; jejunum closed loop): 0.49±0.03 µL/min/cm loop
- CLintestine, estimated (total intestinal secretory clearance) ([3]; from closed loop clearance and intestinal length): 0.15 mL/min
- CL renal ([3]; male, Wistar, rat, urine (relative to plasma AUC), up to 60 min, amount excreted / plasma AUC, read-out: CLrenal of endogenous uric acid): 0.5 ± 0.06 mL/min
- CLbile of endogenous uric acid ([3]; up to 60 min, amount excreted / plasma AUC): 0.02 mL/min and 0.02 ± 0.002 mL/min
- Secretory versus absorptive transport of uric acid [4]: no significant difference
- Vmax of uric acid transport by rBcrp ([6]; ATP-dependent uptake, maximum uric acid concentration 5 mM): 67.3±4.21 nmol/5 min/mg protein
- Uptake of uric acid in the presence of ATP versus AMP ([6]; [14C]uric acid 20 µM, 5 min, 37°C, 4 mM ATP or AMP): significantly higher
Compound: O=c1[nH]c(=O)c2[nH]c(=O)[nH]c2[nH]1 [uric acid]
- Biliary clearance of uric acid [5]: 0.1 to 0.3 mL/min
- Uric acid concentration in bile [5]: 1 to 2 mg/dL
- Urinary clearance of uric acid [5]: 5.8 to 6.3 mL/min
